# Where a name gives a salt, the structure may show the parent alone.
# How the values were obtained:
# [1] = stability of 17 infused compounds in stored wristbands; format: physicochemical; details: for Overall RSD from entire study to 28 days: RSD across all time and temperature samples (−20° C., 4° C., 30° C.); for Beginning RSD from starting time point: RSD of concentration (ng/mL), extraction immediately following infusion
# Protocol: In another example, the stability of wristbands infused with 17 compounds of varied physiochemistry was studied for various combinations of times and temperatures. […] Twelve wristbands underwent solvent extraction and analysis immediately following infusion. The remaining wristbands were divided into three groups and one group of wristbands was stored at each of −20° C., 4° C., and 30° C. Four wristbands from each temperature group underwent solvent extraction and analysis after 7 days and after 28 days. Four wristbands from the −20° C. and 4° C. temperature groups underwent solvent extraction and analysis after 14 days. This stability study is ongoing and will span 2 years.
# [2] = stability of PAH-infused wristbands stored in PTFE bags at three temperatures; format: physicochemical; details: −20° C., 23° C. or 35° C., 72 hours
# Protocol: Studies were carried out to examine whether PAHs would degrade after being sequestered by a wristband or whether field or handling conditions would influence exposure concentrations determined during wristband analysis.
# The PAH-infused wristbands placed in PTFE storage bags were exposed to a temperature of −20° C. (in a walk-in freezer), 23° C. (ambient temperature), or 35° C. (in a drying oven) for 72 hours. Temperatures in each environment were monitored every 30 minutes using a temperature logger. Following the 72-hour exposure, the PAHs were extracted from the wristbands using solvent extraction and analyzed as described above.
# In FIG. 14, the ratio of each analyte response divided by an internal standard response (for perylene-d12) are shown, because an error with surrogate recovery artificially inflated the variance across the three temperature exposures. […] The largest change among all PAH analytes was still less than 13% (fluorene-d10, freezer and ambient temperatures), so any changes in PAH concentrations were deemed negligible. Furthermore, potential changes in concentration would have been conserved since transportation was similar among wristbands within each temperature group. […] The standard deviations in FIG. 14 are the result of three replicates.
SMILES,Overall RSD from entire study to 28 days [1],Beginning RSD from starting time point [1],largest change in analyte response ratio between temperature groups [2]
"[2H]c1c([2H])c([2H])c2c(c1[2H])C(=O)c1c([2H])c([2H])c([2H])c([2H])c1C2=O [Anthraquinone-d8, reference compound]",14%,8%,–
Brc1ccc(Oc2ccc(Br)cc2Br)c(Br)c1 [PBDE 47],37%,37%,–
Brc1ccc(Oc2cc(Br)c(Br)cc2Br)c(Br)c1 [PBDE 99],43%,46%,–
Brc1cc(Br)c(Oc2cc(Br)c(Br)cc2Br)c(Br)c1 [PBDE 154],51%,53%,–
"[2H]c1c([2H])c([2H])c(-c2c(Cl)c(Cl)cc(Cl)c2Cl)c([2H])c1[2H] [PCB-65-d5, reference compound]",37%,35%,–
"[2H]c1c([2H])c([2H])c(-c2c(Cl)c(Cl)c(Cl)c(Cl)c2Cl)c([2H])c1[2H] [PCB-116-d5, reference compound]",44%,45%,–
"[2H]c1c([2H])c(-c2cc(Cl)c(Cl)c(Cl)c2Cl)c([2H])c(Cl)c1Cl [PCB-156-d3, reference compound]",50%,53%,–
"O=P(OC(CCl)CCl)(OC(CCl)CCl)OC(CCl)CCl [TCDPP, 1,3-dichloro-2-propyl phosphate]",14%,10%,–
CCOP(=S)(OCC)Oc1nc(Cl)c(Cl)cc1Cl [chlorpyrifos],24%,19%,–
O=S1(=O)OCC2C(CO1)C1(Cl)C(Cl)=C(Cl)C2(Cl)C1(Cl)Cl (stereo not drawn) [endosulfan sulfate],10%,8%,–
O=C1C2CC3C1C1(Cl)C(Cl)C4(Cl)C2C3C1(Cl)C4(Cl)Cl (stereo not drawn) [endrin Ketone],8%,4%,–
"[2H]c1c([2H])c([2H])c2c(c1[2H])-c1c([2H])c([2H])c([2H])c([2H])c1C2([2H])[2H] [fluorene-d10, reference compound]",16%,14%,less than 13%
CCCSP(=O)(OCC)SCCC [prophos/ethoprophos],11%,8%,–
"[2H]c1c([2H])c2c([2H])c([2H])c3c([2H])c([2H])c([2H])c4c([2H])c([2H])c(c1[2H])c2c34 [pyrene-d10, reference compound]",32%,27%,–
"[2H]c1c([2H])c(Oc2ccc(Cl)cc2O)c(Cl)c([2H])c1Cl [triclosan-d3, reference compound]",11%,9%,–
O=P(Oc1ccccc1)(Oc1ccccc1)Oc1ccccc1 [triphenyl phosphate],12%,6%,–
